According to paper PMC9290002, “Development of Urea-Bond-Containing Michael Acceptors as Antitrypanosomal Agents Targeting Rhodesain” (ACS Medicinal Chemistry Letters, 2022):
Where two headings read alike, the source gives them in different places.

Columns and labels:
rhodesain [1] = target: T1, rhodesain (Trypanosoma brucei rhodesiense, UniProt Q95PM0); details: cited from earlier work; for RD, k2nd: Figure 1
BSF of T.b. = system: BSF of T.b.; set-up: method as in PMID 19620707; details: bloodstream form; Figure 1; cited from earlier work
T. b. brucei [2] = system: T. b. brucei; set-up: method as in PMID 31714776, PMID 28763614; details: Figure 1; cited from earlier work
rhodesain [3] = target: T1, rhodesain; assay: Rhodesain fluorogenic enzyme assay (Cbz-Phe-Arg-AMC); assay type: biochemical; details: for Ki: dissociation constant of noncovalent E·I complex, corrected to zero substrate concentration; for Rhodesain k2nd: k2nd = kinact/Ki
[4] = target: T2, main protease (Mpro) of SARS-CoV-2 (Severe acute respiratory syndrome coronavirus 2, UniProt P0DTD1); assay: Enzyme assay towards SARS-CoV-2 Mpro, preliminary screening; assay type: biochemical; details: preliminary screening at 100 μM; read-out: SARS-CoV-2 Mpro percentage of inhibition
T2 construct: the main protease (M^pro) of SARS-CoV-2
Procedure: In light of this, dilution assays characterizing the mode of inhibition were not performed. Since poor inhibition was shown by the Phe-containing analogues, the Leu derivatives 25 and 26 were not tested against SARS-CoV-2 M^pro.
In all the manipulations regarding the biological evaluation, no unexpected or unusually high safety hazards […]
Enzyme assays towards rhodesain.
The biological activity against rhodesain was evaluated by fluorescence-based assays and all tested compounds were diluted in DMSO. Rhodesain was recombinantly expressed as previously reported2,3 and Cbz-Phe-Arg-AMC (10 µM) was used as the fluorogenic substrate. In the preliminary screening at 0.1 µM, the substrate hydrolysis was determined over a period of 10 min at rt and fluorescence intensity was measured every 30 seconds, whereas the kinetic parameters after the dilutions were determined over a period of 30 min. The assay buffer (pH 5.5) contains 50 mM of sodium acetate, 5 mM of EDTA, 200 mM of NaCl, and 0.005% of Brij 35. Enzyme buffer (pH 5.5) contains 5 mM of DTT and the same chemicals used for assay buffer, with exception of Brij 35. Each independent assay was carried-out twice in duplicate using 96-well-plates in a final volume of 200 µL. Infinity 200 PRO microplate (Tecan, Männedorf, Switzerland) was employed as the fluorescence reader, and a 380 nm excitation filter and a 460 nm emission filter were used.
The first-order inactivation rate costants (k obs) were determined analyzing the progress curves by nonlinear regression analysis using the equation 1 shown in the Chart S1. 4 The obtained k obs values were fitted against the inhibito concentrations to the hyperbolic equation 2, providing the k inact and K iapp values. The latter were corrected to zero substrate concentration by the term (1+[S]/K m) in equation 3. The K m value used to correct K iapp values was determined to 0.9 μM. 5 K i and k inac values were calculated by nonlinear regression analyses using GraFit.6 The second-order rate constants k 2nd = k inact/K i were easily determined from the […]
Chart S1. Equations 1, 2, and 3.
Enzyme assays towards hCatL.
The biological evaluation towards hCatL was performed following the procedure reported in the literature.7 Enzyme assays towards SARS-CoV-2 Mpro.
The biological activity of novel Michael acceptors 1-9 against SARS-CoV-2 M pro was carried-out following the previously described protocol.8
Antitrypanosomal activity.
(1 picture or pasted object on this page, not shown here)

T. b. brucei [5] = assay: Antitrypanosomal activity against cultured T. b. brucei (ATPlite assay); assay type: cell-based; details: Trypanosoma brucei, 24 h
Procedure: All the urea derivatives were tested against cultured T. b. brucei, which expresses rhodesain similarly to T. b. rhodesiense. […] The difference in terms of rhodesain inhibition and antitrypanosomal activity observed for 1 could be due to its poor cell membrane permeability. In fact, we assume that the presence of substituents on the phenyl ring at the P3 position, as well as the extension of the aromatic region, could influence the crossing of cell membranes.
EC50 values for the antitrypanosomal activity were determined using the ATPlite assay as previously

[6] = target: human cathepsin L (hCatL) (Homo sapiens, UniProt P07711); assay: Enzyme assay towards hCatL; assay type: biochemical
Chain of human cathepsin L (hCatL) (P07711 114-333): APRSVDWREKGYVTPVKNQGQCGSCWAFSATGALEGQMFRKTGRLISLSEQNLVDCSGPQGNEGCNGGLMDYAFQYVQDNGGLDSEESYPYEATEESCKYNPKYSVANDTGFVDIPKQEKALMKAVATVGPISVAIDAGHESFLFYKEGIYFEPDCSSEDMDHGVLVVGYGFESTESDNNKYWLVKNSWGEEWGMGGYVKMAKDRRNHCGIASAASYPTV

T1 sequence (Q95PM0 entry or part of it): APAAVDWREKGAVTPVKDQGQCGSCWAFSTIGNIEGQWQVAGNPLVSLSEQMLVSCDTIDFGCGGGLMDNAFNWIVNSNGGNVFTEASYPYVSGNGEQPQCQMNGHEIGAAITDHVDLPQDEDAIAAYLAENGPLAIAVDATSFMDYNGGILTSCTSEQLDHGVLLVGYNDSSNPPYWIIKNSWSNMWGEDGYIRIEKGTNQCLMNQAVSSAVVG

Structure (SMILES) | Ki (rhodesain [1]) | Rhodesain k2nd (rhodesain [1]) | Rhodesain kinact (rhodesain [1]) | BSF of T.b., ED50 (BSF of T.b.) | RD, k2nd (rhodesain [1]) | EC50 (T. b. brucei [2]) | Ki (rhodesain [3]) | inhibition at 100 µM [4] | EC50 (T. b. brucei [5]) | Ki [6] | hCatL k2nd [6] | kinact [6] | Rhodesain k2nd (rhodesain [3])
CC(C)C[C@H](NC(=O)[C@H]1O[C@@H]1C(=O)O)C(=O)NCCCCN=C(N)N [E64] | 35 ± 5 nM | 261 ± 27 ×10^3 M^–1 min^–1 | 0.0090 ± 0.0004 min^–1 |  |  |  |  |  |  |  |  |  | 
CN1CCN(C(=O)N[C@@H](Cc2ccccc2)C(=O)N[C@H](/C=C/S(=O)(=O)c2ccccc2)CCc2ccccc2)CC1 [K11777] |  | 9000 ×10^3 M^–1 min^–1 |  | 900 nM | 150000 M⁻¹ s⁻¹ |  |  |  |  |  |  |  | 
CC(=O)/C=C/[C@H](CCc1ccccc1)NC(=O)[C@H](Cc1ccccc1)NC(=O)c1ccc(F)cc1 [PS-1] |  |  |  |  | 1.47e+07 M⁻¹ s⁻¹ | 3600 nM |  |  |  |  |  |  | 
CC(=O)/C=C/[C@H](CCc1ccccc1)NC(=O)[C@H](Cc1ccccc1)NC(=O)OCc1ccccc1 [RK-52] |  |  |  |  | 1.12e+06 M⁻¹ s⁻¹ | 2970 nM |  |  |  |  |  |  | 
CC(=O)/C=C/[C@H](CCc1ccccc1)NC(=O)[C@H](Cc1ccccc1)NC(=O)Nc1ccccc1 [compound 1, (S)-N-((S,E)-6-Oxo-1-phenylhept-4-en-3-yl)-3-phenyl-2-(3-phenylureido)propenamide] |  |  |  |  |  |  | 0.15 ± 0.06 nM | 33 to 66% | 19800 ± 2670 nM | 0.11 ± 0.01 nM | 5920 ± 150 x 103M-1 min-1 | 1e-05 s⁻¹ | 
COc1ccc(NC(=O)N[C@@H](Cc2ccccc2)C(=O)N[C@H](/C=C/C(C)=O)CCc2ccccc2)cc1 [compound 2, (S)-2-(3-(4-Methoxyphenyl)ureido)-N-((S,E)-6-oxo-1-phenylhept-4-en-3-yl)-3-phenylpropanamide] |  |  |  |  |  |  | 1.05 ± 0.33 nM | 33 to 66% | 2080 ± 220 nM | 81.9 ± 1.06 nM | 9 ± 1 x 103M-1 min-1 | 1.33e-05 s⁻¹ | 5820 ± 490 ×10^3 M^–1 min^–1
CC(=O)/C=C/[C@H](CCc1ccccc1)NC(=O)[C@H](Cc1ccccc1)NC(=O)Nc1ccc(C)cc1 [compound 3, (S)-N-((S,E)-6-Oxo-1-phenylhept-4-en-3-yl)-3-phenyl-2-(3-(p-tolyl)ureido)propanamide] |  |  |  |  |  |  | 0.51 ± 0.38 nM | 33 to 66% | 1390 ± 230 nM | 1.32 ± 0.25 nM | 360 ± 106 x 103M-1 min-1 | 7.5e-06 s⁻¹ | 
CC(=O)/C=C/[C@H](CCc1ccccc1)NC(=O)[C@H](Cc1ccccc1)NC(=O)Nc1ccc(F)cc1 [compound 4, (S)-2-(3-(4-Fluorophenyl)ureido)-N-((S,E)-6-oxo-1-phenylhept-4-en-3-yl)-3-phenylpropanamide] |  |  |  |  |  |  | 0.85 ± 0.07 nM | 33 to 66% | 1510 ± 80 nM | 0.1 ± 0.01 nM | 5880 ± 120 x 103M-1 min-1 | 1e-05 s⁻¹ | 2480 ± 50 ×10^3 M^–1 min^–1
CC(=O)/C=C/[C@H](CCc1ccccc1)NC(=O)[C@H](Cc1ccccc1)NC(=O)Nc1c(F)cccc1F [compound 5, (S)-2-(3-(2,6-Difluorophenyl)ureido)-N-((S,E)-6-oxo-1-phenylhept-4-en-3-yl)-3-phenylpropanamide] |  |  |  |  |  |  | 1.13 ± 0.26 nM | 33 to 66% | 3200 ± 280 nM | 2.14 ± 0.25 nM | 326 ± 8 x 103M-1 min-1 | 1.17e-05 s⁻¹ | 2030 ± 230 ×10^3 M^–1 min^–1
CC(=O)/C=C/[C@H](CCc1ccccc1)NC(=O)[C@H](Cc1ccccc1)NC(=O)Nc1ccc(Cl)cc1 [compound 6, (S)-2-(3-(4-Chlorophenyl)ureido)-N-((S,E)-6-oxo-1-phenylhept-4-en-3-yl)-3-Phenylpropanamide] |  |  |  |  |  |  | 0.78 ± 0.13 nM | 33 to 66% | 1500 ± 240 nM | 3.11 ± 1.63 nM | 321 ± 152 x 103M-1 min-1 | 1.25e-05 s⁻¹ | 2990 ± 300 ×10^3 M^–1 min^–1
CC(=O)/C=C/[C@H](CCc1ccccc1)NC(=O)[C@H](Cc1ccccc1)NC(=O)Nc1ccc(Cl)cc1C [compound 7, (S)-2-(3-(4-Chloro-2-methylphenyl)ureido)-N-((S,E)-6-oxo-1-phenylhept-4-en-3-yl)-3-phenylpropanamide] |  |  |  |  |  |  | 0.51 ± 0.36 nM | 33 to 66% | 1650 ± 70 nM | 0.18 ± 0.03 nM | 3110 ± 160 x 103M-1 min-1 | 9.17e-06 s⁻¹ | 
CC(=O)/C=C/[C@H](CCc1ccccc1)NC(=O)[C@H](Cc1ccccc1)NC(=O)Nc1ccc(Cl)cc1C(F)(F)F [compound 8, (S)-2-(3-(4-Chloro-2-(trifluoromethyl)phenyl)ureido)-N-((S,E)-6-oxo-1-phenylhept-4-en-3-yl)-3-phenylpropanamide] |  |  |  |  |  |  | 1.04 ± 0.31 nM | 33 to 66% | 1280 ± 40 nM | 2.27 ± 0.43 nM | 256 ± 71 x 103M-1 min-1 | 9.17e-06 s⁻¹ | 6050 ± 790 ×10^3 M^–1 min^–1
CC(=O)/C=C/[C@H](CCc1ccccc1)NC(=O)[C@H](Cc1ccccc1)NC(=O)Nc1cccc2ccccc12 [compound 9, (S)-2-(3-(Naphthalen-1-yl)ureido)-N-((S,E)-6-oxo-1-phenylhept-4-en-3-yl)-3-phenylpropanamide] |  |  |  |  |  |  | 2.51 ± 1.51 nM | 33 to 66% | 2280 ± 270 nM | 0.051 ± 0.001 nM | 12820 ± 1050 x 103M-1 min-1 | 1.08e-05 s⁻¹ | 4170 ± 1360 ×10^3 M^–1 min^–1
CC(=O)/C=C/[C@H](CCc1ccccc1)NC(=O)[C@H](CC(C)C)NC(=O)Nc1ccc(C)cc1 [compound 25, (S)-4-Methyl-N-((S,E)-6-oxo-1-phenylhept-4-en-3-yl)-2-(3-(p-tolyl)ureido)pentanamide] |  |  |  |  |  |  | 0.42 ± 0.08 nM |  | 1540 ± 90 nM | 0.64 ± 0.02 nM | 2120 ± 6 x 103M-1 min-1 | 2.25e-05 s⁻¹ | 
CC(=O)/C=C/[C@H](CCc1ccccc1)NC(=O)[C@H](CC(C)C)NC(=O)Nc1ccc(Cl)cc1C [compound 26, (S)-2-(3-(4-chloro-2-methylphenyl)ureido)-4-methyl-N-((S,E)-6-oxo-1-phenylhept-4-en-3-yl)pentanamide] |  |  |  |  |  |  | 0.93 ± 0.52 nM |  | 1120 ± 50 nM | 0.07 ± 0.03 nM | 14240 ± 5410 x 103M-1 min-1 | 1.42e-05 s⁻¹ | 
